Results as given in PubChem BioAssay AID668 (University of Pittsburgh Molecular Library Screening Center, 2007).

Target: M-phase inducer phosphatase 2 (Homo sapiens) (UniProt P30305)
Assay: Cdc25B catalytic domain inhibition plus catalase – biochemical, catalase present, probe assessment, dose response (AID 668)
Conditions: recombinant Cdc25B catalytic domain, phosphatase activity, with catalase

Chain of M-phase inducer phosphatase 2 (Homo sapiens) (P30305 whole entry, looked up, the tested form may be a part): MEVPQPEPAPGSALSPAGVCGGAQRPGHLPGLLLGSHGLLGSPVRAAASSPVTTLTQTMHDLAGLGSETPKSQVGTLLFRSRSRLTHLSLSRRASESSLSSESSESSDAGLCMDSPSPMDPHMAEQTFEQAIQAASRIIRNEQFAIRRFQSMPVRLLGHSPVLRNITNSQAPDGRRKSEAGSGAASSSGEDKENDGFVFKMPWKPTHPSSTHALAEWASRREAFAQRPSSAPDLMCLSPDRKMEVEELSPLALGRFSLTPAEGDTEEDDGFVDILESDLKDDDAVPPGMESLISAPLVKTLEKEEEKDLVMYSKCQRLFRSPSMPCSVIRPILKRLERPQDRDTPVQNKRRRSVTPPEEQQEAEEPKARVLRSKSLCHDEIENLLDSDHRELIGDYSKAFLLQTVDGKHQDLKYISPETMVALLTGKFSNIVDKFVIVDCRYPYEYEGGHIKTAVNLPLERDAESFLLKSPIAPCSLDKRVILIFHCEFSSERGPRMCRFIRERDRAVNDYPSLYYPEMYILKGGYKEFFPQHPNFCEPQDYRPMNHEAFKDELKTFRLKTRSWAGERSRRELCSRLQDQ

Structure (SMILES)	IC50 [µM]
c1ccc(CSc2nnc(-c3ccco3)c(-c3ccco3)n2)cc1	15.7
COc1cccc2c(C)c(C(=O)O)[nH]c12	7.11
